Measured values reported in US20170333112A1, “Optimizing Total Energy Delivered in Nanosecond Pulses for Triggering Apoptosis in Cultured Cells” (Pulse Biosciences, Inc., priority 2016, published 2017).

Columns and labels:
McA-RH7777 cells = experiment: ATP released from cells after treatment (FIG. 10); format: cell-based, rat
Source text: (§1) FIG. 10 includes charts showing ATP released from MCA205, McA-RH7777, and Jurkat E6-1 cells at different numbers of pulses.

MCA205 cells = experiment: ATP released from cells after treatment (FIG. 10); format: cell-based, murine
Source text: as §1

[1] = higher concentration (100 μM), rank among treatment groups (NPS 15 J/mL highest)
[2] = both high and low concentrations (4 and 10 μM)

Compound | ATP released (McA-RH7777 cells; [1]) | ATP levels compared with untreated cells (MCA205 cells; 100 μM) | ATP released (MCA205 cells; [1]) | ATP released (McA-RH7777 cells; [2]) | ATP released (MCA205 cells; [2])
COc1cccc2c1C(=O)c1c(O)c3c(c(O)c1C2=O)C[C@@](O)(C(=O)CO)C[C@@H]3O[C@H]1C[C@H](N)[C@H](O)[C@H](C)O1 [doxorubicin] | second highest amount of ATP | significantly higher | second highest amount of ATP | – | –
O=C1c2c(O)ccc(O)c2C(=O)c2c(NCCNCCO)ccc(NCCNCCO)c21 [mitoxantrone] | – | – | – | comparatively small amount ATP | comparatively small amount ATP
